The target of the assay is T1, Protein tyrosine phosphatase 1B (PTP1B) (Homo sapiens, UniProt P18031).
T1 construct: gene PTPN1
T1 sequence (P18031 1-435): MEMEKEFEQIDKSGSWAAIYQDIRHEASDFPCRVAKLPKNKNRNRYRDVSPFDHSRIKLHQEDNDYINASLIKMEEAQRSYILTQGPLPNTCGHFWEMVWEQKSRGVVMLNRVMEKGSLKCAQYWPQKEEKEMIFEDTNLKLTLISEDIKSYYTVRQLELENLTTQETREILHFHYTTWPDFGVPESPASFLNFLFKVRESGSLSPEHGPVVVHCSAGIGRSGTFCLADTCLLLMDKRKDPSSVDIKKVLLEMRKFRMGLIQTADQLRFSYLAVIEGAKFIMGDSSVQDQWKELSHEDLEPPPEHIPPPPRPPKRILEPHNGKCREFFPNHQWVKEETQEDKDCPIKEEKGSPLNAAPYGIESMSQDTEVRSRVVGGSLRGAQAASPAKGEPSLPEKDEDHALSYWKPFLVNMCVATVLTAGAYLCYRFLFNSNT
Briefly: p-NPP hydrolysis assay with human recombinant PTP1B ([…] nm); Lineweaver-Burk kinetics. It counts as biochemical.

With `O=c1cc(-c2ccc(O)c(O)c2)oc2c([C@@H]3O[C@H](CO)[C@@H](O)[C@H](O)[C@H]3O)c(O)cc(O)c12` [orientin], the 50% inhibitory concentration (IC50) (usually the concentration at which inhibition is half-maximal) was 401 µM.

Values taken from publication PMC9249544, “Identification of Flavonoid C-Glycosides as Promising Antidiabetics Targeting Protein Tyrosine Phosphatase 1B” (Journal of Diabetes Research, 2022).
